From patent US11325955B2, “Stabilized anti-microbial peptides for the treatment of antibiotic-resistant bacterial infections” (priority 2017, dated 2022)
Values after ≈ are worked out from the molar mass of the structure shown. Positions of bridges follow the written chain, without caps; N, C: chain ends. Non-standard residues stand in square brackets, D forms with d. Residues, ends and D or L forms follow the SMILES beside them. S5 = C=CCCC[C@](C)(N)C(=O)O; Nle = CCCC[C@H](N)C(=O)O

Columns and labels:
Assay type in all cases: cell-based
[1] = system: S aureus
Procedure: (§1) The following microbroth dilution protocol was adapted to determine the minimum inhibitory concentration (MIC) of each peptide. First, Mueller-Hinton broth (MHB) was passed through an anion exchange column to remove polyanionic species and generate refined MHB. […] Briefly, bacterial cells were grown overnight in refined MHB at 37° C. and then diluted and allowed to grow again for several hours. Serial dilutions of peptide stocks in water (10 μl) were prepared using clear round-bottom polypropylene 96-well plates. Then 90 μl of bacteria in refined MHB was added to give a final inoculum of 5×10^5 CFU/ml. The plates were then covered with porous tape to reduce evaporation, and incubated for 20-24 hours at 37° C. The MIC is the minimum peptide concentration at which no visible growth was observed.

[2] = system: E coli
Procedure: as §1

[3] = system: P aeruginosa
Procedure: as §1

[4] = system: B cereus
Procedure: as §1

Structure (SMILES)	MIC S aureus [1]	MIC E coli [2]	MIC P aeruginosa [3]	MIC B cereus [4]
CCCC[C@H](NC(=O)[C@]1(C)CCCC=CCCC[C@](C)(NC(=O)[C@H](C)NC(=O)[C@H](CCCCN)NC(=O)CNC(=O)[C@H](Cc2ccccc2)NC(=O)[C@H](CCCCN)NC(=O)[C@H](CCCCN)NC(=O)[C@H](CCCCN)NC(=O)[C@H](CO)NC(=O)[C@H](Cc2c[nH]cn2)NC(=O)[C@]2(C)CCCC=CCCC[C@](C)(NC(=O)CN)C(=O)NCC(=O)N[C@@H](Cc3c[nH]cn3)C(=O)N[C@@H](Cc3ccccc3)C(=O)N2)C(=O)N[C@@H](C(C)C)C(=O)NCC(=O)N[C@@H](CCC(=O)O)C(=O)N1)C(=O)N[C@@H](CC(N)=O)C(=O)N[C@@H](CO)C(N)=O [Mag(i+4)1,15(A9K, K4H), GXGHFXHSKKKFGKAXVGEXBNS] (H-G[S5]GHF[S5]HSKKKFGKA[S5]VGE[S5][Nle]NS-NH2; staple 2-6, 16-20; N-terminus and C-terminus assumed)	>50 µg/mL	3.1 µg/mL (≈ 1.23 µM)	6.2 µg/mL (≈ 2.45 µM)	25 µg/mL (≈ 9.89 µM)
CCCC[C@H](NC(=O)[C@]1(C)CCCC=CCCC[C@](C)(NC(=O)[C@H](C)NC(=O)[C@H](CCCCN)NC(=O)CNC(=O)[C@H](Cc2ccccc2)NC(=O)[C@H](CCCCN)NC(=O)[C@H](Cc2c[nH]cn2)NC(=O)[C@H](CCCCN)NC(=O)[C@H](CO)NC(=O)[C@H](Cc2c[nH]cn2)NC(=O)[C@]2(C)CCCC=CCCC[C@](C)(NC(=O)CN)C(=O)NCC(=O)N[C@@H](Cc3c[nH]cn3)C(=O)N[C@@H](Cc3ccccc3)C(=O)N2)C(=O)N[C@@H](C(C)C)C(=O)NCC(=O)N[C@@H](CCC(=O)O)C(=O)N1)C(=O)N[C@@H](CC(N)=O)C(=O)N[C@@H](CO)C(N)=O [Mag(i+4)1,15(A9K, K4H, K10H), GXGHFXHSKHKFGKAXVGEXBNS] (H-G[S5]GHF[S5]HSKHKFGKA[S5]VGE[S5][Nle]NS-NH2; staple 2-6, 16-20)	>50 µg/mL	3.1 µg/mL (≈ 1.22 µM)	50 µg/mL (≈ 19.7 µM)	50 µg/mL (≈ 19.7 µM)
CCCC[C@H](NC(=O)[C@]1(C)CCCC=CCCC[C@](C)(NC(=O)[C@H](C)NC(=O)[C@H](CCCCN)NC(=O)CNC(=O)[C@H](Cc2ccccc2)NC(=O)[C@H](Cc2c[nH]cn2)NC(=O)[C@H](Cc2c[nH]cn2)NC(=O)[C@H](CCCCN)NC(=O)[C@H](CO)NC(=O)[C@H](Cc2c[nH]cn2)NC(=O)[C@]2(C)CCCC=CCCC[C@](C)(NC(=O)CN)C(=O)NCC(=O)N[C@@H](Cc3c[nH]cn3)C(=O)N[C@@H](Cc3ccccc3)C(=O)N2)C(=O)N[C@@H](C(C)C)C(=O)NCC(=O)N[C@@H](CCC(=O)O)C(=O)N1)C(=O)N[C@@H](CC(N)=O)C(=O)N[C@@H](CO)C(N)=O [Mag(i+4)1,15(A9K, K4H, K10H, K11H), GXGHFXHSKHHFGKAXVGEXBNS] (H-G[S5]GHF[S5]HSKHHFGKA[S5]VGE[S5][Nle]NS-NH2; staple 2-6, 16-20)	>50 µg/mL	17.7 µg/mL (≈ 6.95 µM)	50 µg/mL (≈ 19.6 µM)	>50 µg/mL
CCCC[C@H](NC(=O)[C@]1(C)CCCC=CCCC[C@](C)(NC(=O)[C@H](C)NC(=O)[C@H](CCCCN)NC(=O)CNC(=O)[C@H](Cc2ccccc2)NC(=O)[C@H](CCCCN)NC(=O)[C@H](CCCCN)NC(=O)[C@H](CCCCN)NC(=O)[C@H](CO)NC(=O)[C@H](Cc2c[nH]cn2)NC(=O)[C@]2(C)CCCC=CCCC[C@](C)(NC(=O)CN)C(=O)NCC(=O)N[C@@H](CCCNC(=N)N)C(=O)N[C@@H](Cc3ccccc3)C(=O)N2)C(=O)N[C@@H](C(C)C)C(=O)NCC(=O)N[C@@H](CCC(=O)O)C(=O)N1)C(=O)N[C@@H](CC(N)=O)C(=O)N[C@@H](CO)C(N)=O [Mag(i+4)1,15(A9K, K4R), GXGRFXHSKKKFGKAXVGEXBNS] (H-G[S5]GRF[S5]HSKKKFGKA[S5]VGE[S5][Nle]NS-NH2; staple 2-6, 16-20; N-terminus and C-terminus assumed)	>50 µg/mL	3.1 µg/mL (≈ 1.22 µM)	6.2 µg/mL (≈ 2.43 µM)	12.5 µg/mL (≈ 4.91 µM)
CCCC[C@H](NC(=O)[C@]1(C)CCCC=CCCC[C@](C)(NC(=O)[C@H](C)NC(=O)[C@H](CCCCN)NC(=O)CNC(=O)[C@H](Cc2ccccc2)NC(=O)[C@H](CCCCN)NC(=O)[C@H](CCCNC(=N)N)NC(=O)[C@H](CCCCN)NC(=O)[C@H](CO)NC(=O)[C@H](Cc2c[nH]cn2)NC(=O)[C@]2(C)CCCC=CCCC[C@](C)(NC(=O)CN)C(=O)NCC(=O)N[C@@H](CCCNC(=N)N)C(=O)N[C@@H](Cc3ccccc3)C(=O)N2)C(=O)N[C@@H](C(C)C)C(=O)NCC(=O)N[C@@H](CCC(=O)O)C(=O)N1)C(=O)N[C@@H](CC(N)=O)C(=O)N[C@@H](CO)C(N)=O [Mag(i+4)1,15(A9K, K4R, K10R), GXGRFXHSKRKFGKAXVGEXBNS] (H-G[S5]GRF[S5]HSKRKFGKA[S5]VGE[S5][Nle]NS-NH2; staple 2-6, 16-20)	>50 µg/mL	3.1 µg/mL (≈ 1.2 µM)	6.2 µg/mL (≈ 2.41 µM)	12.5 µg/mL (≈ 4.85 µM)
